Measurements as given in the supplement of paper PMC10307832.

Tests used:
Assay in all cases: relative viability (nuclei count vs DMSO), 5 days (fraction); higher = more cells survive
[1] = system: EPLC-272H
Outline: (§1)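 Dosing by pin tool came one day after lung cancer cell lines were seeded in 1536-well plates, using either one drug or a fixed anchor-drug dose plus five library-drug doses (not always all listed) in √10 steps. After 5 days, nuclei were counted on 4× images. Relative viability is treated-well nuclei count divided by vehicle-well nuclei count, and values are medians of duplicate plates.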

[2] = system: H3255
Outline: as §1

[3] = system: HARA
Outline: as §1

[4] = system: LC-2-ad
Outline: as §1

[5] = system: LOU-NH91
Outline: as §1

[6] = system: NCI-H1651
Outline: as §1

[7] = system: NCI-H1975
Outline: as §1

[8] = system: NCI-H2009
Outline: as §1

[9] = system: NCI-H2023
Outline: as §1

[10] = system: NCI-H2085
Outline: as §1

[11] = system: NCI-H2087
Outline: as §1

[12] = system: NCI-H2170
Outline: as §1

[13] = system: NCI-H2228
Outline: as §1

[14] = system: NCI-H23
Outline: as §1

[15] = system: NCI-H441
Outline: as §1

[16] = system: NCI-H650
Outline: as §1

[17] = system: NCI-H727
Outline: as §1

[18] = system: NCI-H838
Outline: as §1

[19] = system: PC-3 [JPC-3]
Outline: as §1

[20] = system: SW 1573
Outline: as §1

[21] = system: UMC-11
Outline: as §1

`Cc1csc(=NC2CCCCC2)n1/N=C/c1ccc(O)c(O)c1O` [MIM1] + Cc1nc(NC(=O)N2CCC[C@H]2C(N)=O)sc1-c1ccnc(C(C)(C)C(F)(F)F)c1 [Alpelisib] (partner 2 µM) was tested, and the relative viability ([1]; first compound 0.2 µM) was 0.968, the relative viability ([1]; first compound 0.6325 µM) was 0.769 and the relative viability ([1]; first compound 2 µM) was 0.973. For the same molecule, the relative viability ([1]; first compound 6.325 µM) was 0.958, the relative viability ([1]; first compound 20 µM) was 0.294 and the relative viability ([2]; first compound 0.2 µM) was 0.753. It also gave a relative viability ([2]; first compound 0.6325 µM) of 0.56, a relative viability ([2]; first compound 2 µM) of 0.642 and a relative viability ([2]; first compound 6.325 µM) of 0.523. The relative viability ([2]; first compound 20 µM) was 0.311, the relative viability ([3]; first compound 0.2 µM) was 0.887 and the relative viability ([3]; first compound 0.6325 µM) was 0.857. It also gave a relative viability ([3]; first compound 2 µM) of 0.878, a relative viability ([3]; first compound 6.325 µM) of 0.361 and a relative viability ([3]; first compound 20 µM) of 0.165. For the same molecule, the relative viability ([4]; first compound 0.2 µM) was 0.867, the relative viability ([4]; first compound 0.6325 µM) was 0.905 and the relative viability ([4]; first compound 2 µM) was 0.946. For the same molecule, the relative viability ([4]; first compound 6.325 µM) was 0.527, the relative viability ([4]; first compound 20 µM) was 0.116 and the relative viability ([5]; first compound 0.2 µM) was 0.704. It also gave a relative viability ([5]; first compound 0.6325 µM) of 0.779, a relative viability ([5]; first compound 2 µM) of 0.591 and a relative viability ([5]; first compound 6.325 µM) of 0.641. It also gave a relative viability ([5]; first compound 20 µM) of 0.561, a relative viability ([6]; first compound 0.2 µM) of 0.927 and a relative viability ([6]; first compound 0.6325 µM) of 0.974. The relative viability ([6]; first compound 2 µM) was 0.921, the relative viability ([6]; first compound 6.325 µM) was 0.793 and the relative viability ([6]; first compound 20 µM) was 0.936. For the same molecule, the relative viability ([7]; first compound 0.2 µM) was 0.63, the relative viability ([7]; first compound 0.6325 µM) was 0.624 and the relative viability ([7]; first compound 2 µM) was 0.569. It also gave a relative viability ([7]; first compound 6.325 µM) of 0.391, a relative viability ([7]; first compound 20 µM) of 0.313 and a relative viability ([8]; first compound 0.2 µM) of 1.14. It also gave a relative viability ([8]; first compound 0.6325 µM) of 1.21, a relative viability ([8]; first compound 2 µM) of 1.23 and a relative viability ([8]; first compound 6.325 µM) of 1.04. For the same molecule, the relative viability ([8]; first compound 20 µM) was 0.987, the relative viability ([9]; first compound 0.2 µM) was 0.564 and the relative viability ([9]; first compound 0.6325 µM) was 0.594. It also gave a relative viability ([9]; first compound 2 µM) of 0.526, a relative viability ([9]; first compound 6.325 µM) of 0.368 and a relative viability ([9]; first compound 20 µM) of 0.328. It also gave a relative viability ([10]; first compound 0.2 µM) of 0.946, a relative viability ([10]; first compound 0.6325 µM) of 1.02 and a relative viability ([10]; first compound 2 µM) of 0.984. It also gave a relative viability ([10]; first compound 6.325 µM) of 0.84, a relative viability ([10]; first compound 20 µM) of 0.882 and a relative viability ([11]; first compound 0.2 µM) of 1.17. The relative viability ([11]; first compound 0.6325 µM) was 1.2, the relative viability ([11]; first compound 2 µM) was 1.06 and the relative viability ([11]; first compound 6.325 µM) was 0.886. For the same molecule, the relative viability ([11]; first compound 20 µM) was 0.706, the relative viability ([12]; first compound 0.2 µM) was 0.769 and the relative viability ([12]; first compound 0.6325 µM) was 0.814. The relative viability ([12]; first compound 2 µM) was 0.812, the relative viability ([12]; first compound 6.325 µM) was 0.651 and the relative viability ([12]; first compound 20 µM) was 0.337. The relative viability ([13]; first compound 0.2 µM) was 0.76, the relative viability ([13]; first compound 0.6325 µM) was 1.09 and the relative viability ([13]; first compound 2 µM) was 0.666. It also gave a relative viability ([13]; first compound 6.325 µM) of 0.335, a relative viability ([13]; first compound 20 µM) of 0.197 and a relative viability ([14]; first compound 0.2 µM) of 0.653. It also gave a relative viability ([14]; first compound 2 µM) of 0.555, a relative viability ([14]; first compound 6.325 µM) of 0.606 and a relative viability ([14]; first compound 20 µM) of 0.203. For the same molecule, the relative viability ([15]; first compound 0.2 µM) was 0.75, the relative viability ([15]; first compound 0.6325 µM) was 0.63 and the relative viability ([15]; first compound 2 µM) was 0.655. It also gave a relative viability ([15]; first compound 6.325 µM) of 0.594, a relative viability ([15]; first compound 20 µM) of 0.187 and a relative viability ([16]; first compound 0.2 µM) of 1.19. It also gave a relative viability ([16]; first compound 0.6325 µM) of 1.1, a relative viability ([16]; first compound 2 µM) of 1.27 and a relative viability ([16]; first compound 6.325 µM) of 1.04. The relative viability ([16]; first compound 20 µM) was 0.396, the relative viability ([17]; first compound 0.2 µM) was 0.595 and the relative viability ([17]; first compound 0.6325 µM) was 0.614. It also gave a relative viability ([17]; first compound 2 µM) of 0.534, a relative viability ([17]; first compound 6.325 µM) of 0.482 and a relative viability ([17]; first compound 20 µM) of 0.397. For the same molecule, the relative viability ([18]; first compound 0.2 µM) was 0.974, the relative viability ([18]; first compound 0.6325 µM) was 1 and the relative viability ([18]; first compound 2 µM) was 0.83. It also gave a relative viability ([18]; first compound 6.325 µM) of 0.827, a relative viability ([18]; first compound 20 µM) of 1.09 and a relative viability ([19]; first compound 0.2 µM) of 1.06. The relative viability ([19]; first compound 0.6325 µM) was 1.03, the relative viability ([19]; first compound 2 µM) was 1.02 and the relative viability ([19]; first compound 6.325 µM) was 0.884. It also gave a relative viability ([19]; first compound 20 µM) of 0.716, a relative viability ([20]; first compound 0.2 µM) of 0.809 and a relative viability ([20]; first compound 0.6325 µM) of 0.758. It also gave a relative viability ([20]; first compound 2 µM) of 0.808, a relative viability ([20]; first compound 6.325 µM) of 0.639 and a relative viability ([20]; first compound 20 µM) of 0.618. The relative viability ([21]; first compound 0.2 µM) was 0.952, the relative viability ([21]; first compound 0.6325 µM) was 1.04 and the relative viability ([21]; first compound 2 µM) was 0.962. The relative viability ([21]; first compound 6.325 µM) was 0.69 and the relative viability ([21]; first compound 20 µM) was 0.224.
